Test results from paper PMC7870626, “Neurotoxicity and underlying cellular changes of 21 mitochondrial respiratory chain inhibitors” (Archives of Toxicology, 2021).
pEC50: −log10 of the molar value. Read-outs that look alike come from different tables or passages of the source.

Assays:
LUHMES cells [1] = type: cell-based, human; conditions: for log2FoldChange AARS: gene AARS; for log2FoldChange AARS / log2FoldChange AASDHPPT / log2FoldChange AATF / log2FoldChange ABCA1 / log2FoldChange ABCA6: vs 0.1% DMSO; for log2FoldChange AASDHPPT: gene AASDHPPT; for log2FoldChange AATF: gene AATF; for log2FoldChange ABCA1: gene ABCA1; for log2FoldChange ABCA6: gene ABCA6
Method: Cells were cultured and treated as described above for the NeuriTox assay. On d3, after 24 h treatment, culture medium was replaced by 33 µl/well 1 × Biospyder lysis buffer. After 15 min at room temperature, plates were sealed and frozen at -80 °C to complete lysis. Samples were analyzed at Bioclavis (Glasgow) using the TempO-Seq technique and the EU-ToxRisk v2.0 gene probe panel covering ca. 3000 genes (Yeakley et al. [2017]). All genes are listed in the supplementary excel file (containing also all gene regulations). Briefly, a 50 bp fragment of the target gene was amplified. The amplification step also introduced sample-specific barcodes. This allowed pooling of all samples and standard next-generation sequencing of the ensemble. Afterward, adapters were used to allocate the sequenced fragments to the correct samples. Finally, the alignment of all sequenced fragments (FASTQ files) for each sample to the collection of reference 50 bp oligonucleotides was performed for the quantification of reads per gene, also known as the read count values. In a pre-filtering step, samples with a total count < 0.2 million and genes with an average count < 1.5 were removed.
To correct for both read depth and RNA composition, the DESeq2′s median of ratios normalization was applied. The analysis of differentially expressed genes (DEG) of each treatment against the control group was done by the Wald test implemented in DESeq2/R (Love et al. [2014]), including an FDR correction for p-adjusted ≤ 0.05. […] A curve was fit through these concentration–response data to obtain EC10DEG. For comparability, all DEG data were normalized to a positive control. […] The EC10DEG was calculated using an established online open access BMC calculator (BMCeasy) (Krebs et al. [2020]).

LUHMES cells [2] = test: NeuriTox test: neurite area and viability, 24 h; type: cell-based, human
Method: (§1) The NeuriTox test was performed as previously described (Delp et al. [2018b]; Krug et al. [2013a]; Stiegler et al. [2011]). Briefly, cells differentiated for 48 h were re-seeded into 96-well plates at a density of 100,000 cells/cm^2 in DM without cAMP and GDNF, and treated 1 h after seeding for 24 h. Subsequently, multiple endpoints were determined, e.g., neurite outgrowth (i.e., NeuriTox test), resazurin reduction, intracellular ATP content, gene expression levels from TempO-Seq analysis, and proteasomal activity. For the 120 h exposure scenario, LUHMES cells were differentiated for another 3 days after reseeding before they were treated on day 5 (d5) and d7 by a half medium exchange. Endpoints were determined on d10 of differentiation.
Image acquisition and analysis was performed as described previously (Krug et al. [2013a]; Schildknecht et al. [2013]; Stiegler et al. [2011]). In brief, cells were live-stained with 1 µg/ml Hoechst H-33342 and 1 µM calcein-AM and image acquisition was done by an automated high content imager (Cellomics, Waltham, MA, USA). Cell viability was determined as ratio of live cells (cell bodies being Calcein- and Hoechst-positive) relative to the total amount of cells (Hoechst-positive cell bodies). Neurite area was calculated by subtracting the somatic area (Hoechst-positive area plus surrounding) from the calcein-positive area.

LUHMES cells [3] = test: Intracellular ATP content after NeuriTox exposure; type: cell-based; conditions: Homo sapiens; NeuriTox exposure scheme, 24 h; read-out: LUHMES 24 h EC25 ATP (converted)
Method: as §1
Plates from the NeuriTox test were further used after imaging for determination of alternative endpoints. Intracellular ATP was determined as described earlier (Delp et al. [2019]). In brief, CellTiterGlo 2.0 assay mix (Promega) containing luciferase was added after imaging, and luminescence was recorded. For the determination of resazurin reduction, a 10 × resazurin stock solution was added after imaging to the medium (final resazurin concentration 2 µg/ml) (Delp et al. [2018a]). After 60 min incubation, resazurin fluorescence was recorded (ex: 530 nm, em: 590 nm). Background-corrected data was used for further analysis.

[4] = system: MRC complex (cI, cII or cIII); test: HepG2-based MRC complex assay in permeabilized cells (earlier study); type: cell-based; conditions: NeuriTox neurite EC25 relative to complex assay EC25 in permeabilized cells; respirometric data from HepG2-based assays ref van der Stel et al. 2020
HepG2 cells = test: HepG2-based respirometry, total cell respiration (earlier study); conditions: NeuriTox neurite EC25 relative to cell respiration EC25; respirometric data from HepG2-based assays ref van der Stel et al. 2020
proteasome = test: Proteasomal activity (KE3 assay) in LUHMES cells; type: cell-based, human; conditions: NeuriTox neurite EC25 relative to proteasomal activity EC25, LUHMES
Method: Activity of the proteasome was quantified as described in (Gutbier et al. [2018b]). Briefly, after exposure, culture medium was replaced by assay buffer containing a cell-permeable proteasomal substrate (MeOSuc-Gly-Leu-Phe-AMC, 25 µM (Bachem, Bubendorf, Switzerland) in HBSS). Its AMC-fluorescence (ex: 360 nm, em: 465 nm) increases with proteasomal activity and was monitored for 90 min. Background-corrected data were used for further analysis.

U2OS cells = test: cells; type: cell-based; conditions: Homo sapiens; U2OS osteosarcoma cells, 24 h, luminescence of constitutively expressed luciferase; read-out: Cytotox EC25 U2OS (converted)
Method: A cell suspension of 100,000 cells/ml was prepared in assay medium, and white 384-well plates were filled with 30 µl/well cell suspension. Twenty-four hours after seeding, a dilution series of test compound, as well as positive and negative controls, were added to the cells. After 24 h exposure, the medium was removed, and 10 µl of Triton X-100 lysis buffer was added to each well. The luminescent signal was determined in a luminometer by injecting BDS Illuminate Mix and measuring the light emission. The Cytotox CALUX cell line constitutively expresses a high level of luciferase protein; the light emission is therefore proportional to the cell number of live cells, and its decrease can be used as measure of cytotoxicity. The light emission generated by cells exposed to vehicle control was set to 100%, and the luminescence of cells exposed to the positive control toxicant tributyltin acetate [100 µM] was set to 0%. The light output of the cells exposed to different concentrations of test compounds was scaled accordingly.

[5] = Homo sapiens, NeuriTox exposure scheme, 24 h, read-out: LUHMES 24 h EC25 NA (neurite area) (converted)
[6] = Homo sapiens, NeuriTox exposure scheme, 24 h, read-out: LUHMES 24 h EC25 V (viability) (converted)
[7] = Homo sapiens, NeuriTox test, neurite outgrowth impairment, LUHMES 24 h, read-out: EC25 KE4 (AO) Neurite toxicity (converted)

SMILES: CCCCCC[C@H]1C(=O)O[C@H](C)[C@H](NC(=O)c2cccc(NC=O)c2O)C(=O)O[C@@H](C)[C@@H]1OC(=O)CC(C)C [Antimycin A]
- log2FoldChange AARS (LUHMES cells [1]; 0.08 µM, 24 h): -0.20 log2
- log2FoldChange AASDHPPT (LUHMES cells [1]; 0.08 µM, 24 h): -0.32 log2
- log2FoldChange AATF (LUHMES cells [1]; 0.08 µM, 24 h): 0.18 log2
- log2FoldChange ABCA1 (LUHMES cells [1]; 0.08 µM, 24 h): -0.64 log2
- log2FoldChange ABCA6 (LUHMES cells [1]; 0.08 µM, 24 h): 1.98 log2
- Offset between neurite endpoint (LUHMES/SH-SY5Y) and U2OS viability (LUHMES cells [2]): potentially strong neurite-specific toxicant
- EC25 (LUHMES cells [2]; [5]): 15.8 µM
- EC25 (LUHMES cells [2]; [6]): > 50.1 µM
- EC25 (LUHMES cells [2]; [7]): 15.8 µM
- EC25 (LUHMES cells [3]): 25.1 µM
- Ratios of EC25 KE4/KE1 complex assay [4]: 1580
- Ratios of EC25 KE4/KE1 total respiration (HepG2 cells): 1580
- Ratios of EC25 KE4/KE3 proteasomal (proteasome): 1.1
- EC25 (U2OS cells): 100 µM

SMILES: COc1cc(CNC(=O)CCCC/C=C/C(C)C)ccc1O [Capsaicin]
- log2FoldChange AARS (LUHMES cells [1]; 0.10 µM, 24 h): -0.12 log2
- log2FoldChange AASDHPPT (LUHMES cells [1]; 0.10 µM, 24 h): 0.45 log2
- log2FoldChange AATF (LUHMES cells [1]; 0.10 µM, 24 h): -0.07 log2
- log2FoldChange ABCA1 (LUHMES cells [1]; 0.10 µM, 24 h): -0.65 log2
- log2FoldChange ABCA6 (LUHMES cells [1]; 0.10 µM, 24 h): -2.67 log2
- EC25 (LUHMES cells [2]; [5]): > 50.1 µM
- EC25 (LUHMES cells [2]; [6]): > 50.1 µM
- EC25 (LUHMES cells [3]): > 50.1 µM
- EC25 (U2OS cells): 63.1 µM

SMILES: CC1=C(C(=O)Nc2ccccc2)SCCO1 [Carboxin]
- log2FoldChange AARS (LUHMES cells [1]; 0.20 µM, 24 h): -0.12 log2
- log2FoldChange AASDHPPT (LUHMES cells [1]; 0.20 µM, 24 h): 0.26 log2
- log2FoldChange AATF (LUHMES cells [1]; 0.20 µM, 24 h): 0.0462 log2
- log2FoldChange ABCA1 (LUHMES cells [1]; 0.20 µM, 24 h): -0.37 log2
- log2FoldChange ABCA6 (LUHMES cells [1]; 0.20 µM, 24 h): 0.78 log2
- EC25 (LUHMES cells [2]; [5]): 79.4 µM
- EC25 (LUHMES cells [2]; [6]): > 100 µM
- EC25 (LUHMES cells [2]; [7]): 79.4 µM
- EC25 (LUHMES cells [3]): > 100 µM
- Ratios of EC25 KE4/KE1 complex assay [4]: 32
- Ratios of EC25 KE4/KE1 total respiration (HepG2 cells): < 8
- Ratios of EC25 KE4/KE3 proteasomal (proteasome): < 0.8
- EC25 (U2OS cells): > 100 µM

SMILES: Cc1ccc(-c2c(Cl)nc(C#N)n2S(=O)(=O)N(C)C)cc1 [Cyazofamid]
- log2FoldChange AARS (LUHMES cells [1]; 0.00781 µM, 24 h): -1.30 log2
- log2FoldChange AASDHPPT (LUHMES cells [1]; 0.00781 µM, 24 h): 1.09 log2
- log2FoldChange AATF (LUHMES cells [1]; 0.00781 µM, 24 h): -0.24 log2
- log2FoldChange ABCA1 (LUHMES cells [1]; 0.00781 µM, 24 h): -1.98 log2
- log2FoldChange ABCA6 (LUHMES cells [1]; 0.00781 µM, 24 h): 0.44 log2
- EC25 (LUHMES cells [2]; [5]): 50.1 µM
- EC25 (LUHMES cells [2]; [6]): > 50.1 µM
- EC25 (LUHMES cells [2]; [7]): 50.1 µM
- Precipitation in the assay (LUHMES cells [2]; LUHMES NeuriTox concentration range): precipitate in the active concentration range
- EC25 (LUHMES cells [3]): > 50.1 µM
- Ratios of EC25 KE4/KE1 complex assay [4]: < 5
- EC25 (U2OS cells): 100 µM

SMILES: COc1cc2c(cc1OC)[C@@H]1C(=O)c3ccc4c(c3O[C@@H]1CO2)C=CC(C)(C)O4 [Deguelin]
- Number of DEGs triggered (LUHMES cells [1]; 13 µM, 24 h, LUHMES): 325
- Regulation of the 13 deguelin-sensitive genes (in words) (LUHMES cells [1]; LUHMES 24 h): 11 out of 13 of these genes were not significantly regulated up to 0.8 µM deguelin, but clearly upregulated at 3.25 µM
- log2FoldChange AARS (LUHMES cells [1]; 0.05 µM, 24 h): -0.69 log2
- log2FoldChange AASDHPPT (LUHMES cells [1]; 0.05 µM, 24 h): 0.63 log2
- log2FoldChange AATF (LUHMES cells [1]; 0.05 µM, 24 h): -0.08 log2
- log2FoldChange ABCA1 (LUHMES cells [1]; 0.05 µM, 24 h): -2.12 log2
- log2FoldChange ABCA6 (LUHMES cells [1]; 0.05 µM, 24 h): 0.47 log2
- Offset between neurite endpoint (LUHMES/SH-SY5Y) and U2OS viability (LUHMES cells [2]): > tenfold offset
- pEC50 (LUHMES cells [2]; Homo sapiens, read-out: EC10V (10% reduction of viability), NeuriTox assay, LUHMES 24 h): 4.89
- EC25 (LUHMES cells [2]; [5]): 3.98 µM
- EC25 (LUHMES cells [2]; [6]): 50.1 µM
- EC25 (LUHMES cells [2]; [7]): 3.98 µM
- EC25 (LUHMES cells [3]): 10 µM
- Ratios of EC25 KE4/KE1 complex assay [4]: 250
- Ratios of EC25 KE4/KE1 total respiration (HepG2 cells): 32
- Ratios of EC25 KE4/KE3 proteasomal (proteasome): 0.7
- EC25 (U2OS cells): > 50.1 µM

SMILES: Cc1ccccc1C(=O)Nc1cccc(OC(C)C)c1 [Mepronil]
- log2FoldChange AARS (LUHMES cells [1]; 0.20 µM, 24 h): 0.46 log2
- log2FoldChange AASDHPPT (LUHMES cells [1]; 0.20 µM, 24 h): 0.19 log2
- log2FoldChange AATF (LUHMES cells [1]; 0.20 µM, 24 h): 0.22 log2
- log2FoldChange ABCA1 (LUHMES cells [1]; 0.20 µM, 24 h): 0.65 log2
- log2FoldChange ABCA6 (LUHMES cells [1]; 0.20 µM, 24 h): 0.20 log2
- EC25 (LUHMES cells [2]; [5]): 100 µM
- EC25 (LUHMES cells [2]; [6]): > 100 µM
- EC25 (LUHMES cells [2]; [7]): > 100 µM
- EC25 (LUHMES cells [3]): > 100 µM
- Ratios of EC25 KE4/KE1 complex assay [4]: > 5.0
- Ratios of EC25 KE4/KE3 proteasomal (proteasome): > 0.8
- EC25 (U2OS cells): > 100 µM
